For test [1], the target named is Inactive tyrosine-protein kinase PEAK1 (Homo sapiens) (UniProt Q9H792). The test can be described thus: Selectivity interaction (Kinase panel (Z-LYTE Assay)) EUB0001632a PEAK1. The following applies: at 10 µM.
Test [2] has as its system Phosphatidylinositol 4,5-bisphosphate 3-kinase catalytic subunit alpha isoform (Homo sapiens), P42336 [Q546K]. The following applies: at 10 µM.
Test [3] deals with Phosphatidylinositol 4,5-bisphosphate 3-kinase catalytic subunit gamma isoform (Homo sapiens) (UniProt P48736). The test can be described thus: Selectivity interaction (KinomeScan (DiscoverX)) EUB0000695a PIK3CG. The following applies: at 100 nM.
Test [4] addresses T1, Ephrin type-A receptor 8 (Homo sapiens) (UniProt P29322).
T1 sequence (whole entry): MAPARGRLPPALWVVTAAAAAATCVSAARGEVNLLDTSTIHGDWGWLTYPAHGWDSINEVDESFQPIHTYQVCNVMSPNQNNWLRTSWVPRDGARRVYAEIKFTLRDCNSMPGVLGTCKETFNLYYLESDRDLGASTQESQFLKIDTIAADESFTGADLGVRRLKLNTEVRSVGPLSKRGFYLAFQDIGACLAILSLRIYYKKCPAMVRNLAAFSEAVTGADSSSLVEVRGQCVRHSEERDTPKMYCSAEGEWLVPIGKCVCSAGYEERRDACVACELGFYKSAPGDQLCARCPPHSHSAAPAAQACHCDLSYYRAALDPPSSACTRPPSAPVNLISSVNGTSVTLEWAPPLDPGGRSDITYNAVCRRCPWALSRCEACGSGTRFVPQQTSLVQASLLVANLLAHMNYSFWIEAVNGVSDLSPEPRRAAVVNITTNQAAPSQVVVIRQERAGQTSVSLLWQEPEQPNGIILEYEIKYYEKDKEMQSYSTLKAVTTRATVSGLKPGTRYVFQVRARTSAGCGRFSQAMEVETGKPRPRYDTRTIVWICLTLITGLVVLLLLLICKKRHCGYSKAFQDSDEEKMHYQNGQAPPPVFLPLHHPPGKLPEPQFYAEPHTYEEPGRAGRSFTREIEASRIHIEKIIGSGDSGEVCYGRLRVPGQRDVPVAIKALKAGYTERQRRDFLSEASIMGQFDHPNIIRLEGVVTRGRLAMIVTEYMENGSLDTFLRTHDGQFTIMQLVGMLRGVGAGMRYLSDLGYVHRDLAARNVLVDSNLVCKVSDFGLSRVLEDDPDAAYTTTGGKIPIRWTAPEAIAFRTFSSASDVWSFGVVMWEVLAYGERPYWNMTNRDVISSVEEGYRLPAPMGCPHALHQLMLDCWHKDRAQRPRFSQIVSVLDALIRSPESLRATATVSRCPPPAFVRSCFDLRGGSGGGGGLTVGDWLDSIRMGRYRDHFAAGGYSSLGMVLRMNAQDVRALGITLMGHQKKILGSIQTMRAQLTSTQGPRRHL
The test can be described thus: Selectivity interaction (SelectScreen profiling (Invitrogen)) EUB0000607a EPHA8. Particulars: at 2 µM.

For test [5], the system named is Leucine-rich repeat serine/threonine-protein kinase 2 (Homo sapiens), Q5S007 [G2019S]. The test can be described thus: (§1) Selectivity interaction (KinomeScan (DiscoverX)) EUB0000607a LRRK2. Particulars: at 10 µM.
The target of test [6] is Leucine-rich repeat serine/threonine-protein kinase 2 (Homo sapiens, UniProt Q5S007). The description is as §1. Particulars: at 10 µM.
Test [7] has as its target Calcium/calmodulin-dependent protein kinase type 1D (Homo sapiens) (UniProt Q8IU85). Kind of test: Selectivity interaction (ActivX KiNativ screen (kinase selectivity in THP-1 cell lysates)) EUB0000639a CAMK1D. Type of test: subcellular. The following applies: lysate.
Test [8] has as its target T2, Phosphorylase b kinase gamma catalytic chain, liver/testis isoform (Homo sapiens) (UniProt P15735).
T2 sequence (whole entry): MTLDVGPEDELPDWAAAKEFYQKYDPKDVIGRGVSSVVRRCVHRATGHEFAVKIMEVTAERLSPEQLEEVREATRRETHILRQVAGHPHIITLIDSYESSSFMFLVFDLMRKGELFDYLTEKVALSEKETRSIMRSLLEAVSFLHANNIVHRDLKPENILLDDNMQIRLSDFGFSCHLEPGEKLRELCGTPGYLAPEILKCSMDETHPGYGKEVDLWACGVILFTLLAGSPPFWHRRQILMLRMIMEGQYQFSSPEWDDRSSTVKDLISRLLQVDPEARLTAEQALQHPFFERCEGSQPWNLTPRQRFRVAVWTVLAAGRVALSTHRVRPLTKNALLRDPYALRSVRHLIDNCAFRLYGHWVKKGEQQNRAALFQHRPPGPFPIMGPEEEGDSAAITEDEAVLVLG
Kind of test: Selectivity interaction (KinomeScan (DiscoverX)) EUB0001049a PHKG2. The following applies: at 1 µM.

For test [9], the target named is Cyclin-dependent kinase-like 1 (Homo sapiens) (UniProt Q00532). The test can be described thus: Selectivity interaction (KinomeScan (DiscoverX)) EUB0001049a CDKL1. Particulars: at 1 µM.
The target in test [10] is Activin receptor type-2A (Homo sapiens) (UniProt P27037). Kind of test: Selectivity interaction (KinomeScan (DiscoverX)) EUB0000618a ACVR2A. Particulars: at 10 µM.
The target in test [11] is T3, Phosphatidylinositol 5-phosphate 4-kinase type-2 gamma (Homo sapiens) (UniProt Q8TBX8).
T3 sequence (whole entry): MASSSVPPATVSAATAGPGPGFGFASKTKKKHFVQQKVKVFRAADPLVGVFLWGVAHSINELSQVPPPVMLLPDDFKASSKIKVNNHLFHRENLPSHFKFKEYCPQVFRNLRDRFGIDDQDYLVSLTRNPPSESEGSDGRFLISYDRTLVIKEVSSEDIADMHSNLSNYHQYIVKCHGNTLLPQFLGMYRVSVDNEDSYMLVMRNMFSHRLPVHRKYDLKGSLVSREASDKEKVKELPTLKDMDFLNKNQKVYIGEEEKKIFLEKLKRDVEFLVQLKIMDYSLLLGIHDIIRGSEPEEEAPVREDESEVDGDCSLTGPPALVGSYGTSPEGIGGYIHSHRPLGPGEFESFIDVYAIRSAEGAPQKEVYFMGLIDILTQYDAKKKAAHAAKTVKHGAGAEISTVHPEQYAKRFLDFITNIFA
Kind of test: Selectivity interaction (KinomeScan (DiscoverX)) EUB0000229b PIP4K2C. Particulars: at 10 µM.

SMILES strings stand for the structures.

Sequence of Calcium/calmodulin-dependent protein kinase type 1D (Homo sapiens) (Q8IU85 whole entry, looked up, canonical isoform): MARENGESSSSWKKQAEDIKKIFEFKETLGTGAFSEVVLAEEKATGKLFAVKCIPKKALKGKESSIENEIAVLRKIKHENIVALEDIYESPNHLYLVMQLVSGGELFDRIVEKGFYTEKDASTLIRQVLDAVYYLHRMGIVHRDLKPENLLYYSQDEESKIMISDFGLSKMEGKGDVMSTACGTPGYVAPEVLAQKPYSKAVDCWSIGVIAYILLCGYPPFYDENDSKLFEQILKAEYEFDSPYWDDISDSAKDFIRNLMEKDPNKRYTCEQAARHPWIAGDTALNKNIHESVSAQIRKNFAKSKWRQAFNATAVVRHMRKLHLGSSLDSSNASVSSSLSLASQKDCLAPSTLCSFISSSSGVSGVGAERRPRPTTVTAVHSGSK
Sequence of Leucine-rich repeat serine/threonine-protein kinase 2 (Homo sapiens), Q5S007 [G2019S] (Q5S007 whole entry G2019S): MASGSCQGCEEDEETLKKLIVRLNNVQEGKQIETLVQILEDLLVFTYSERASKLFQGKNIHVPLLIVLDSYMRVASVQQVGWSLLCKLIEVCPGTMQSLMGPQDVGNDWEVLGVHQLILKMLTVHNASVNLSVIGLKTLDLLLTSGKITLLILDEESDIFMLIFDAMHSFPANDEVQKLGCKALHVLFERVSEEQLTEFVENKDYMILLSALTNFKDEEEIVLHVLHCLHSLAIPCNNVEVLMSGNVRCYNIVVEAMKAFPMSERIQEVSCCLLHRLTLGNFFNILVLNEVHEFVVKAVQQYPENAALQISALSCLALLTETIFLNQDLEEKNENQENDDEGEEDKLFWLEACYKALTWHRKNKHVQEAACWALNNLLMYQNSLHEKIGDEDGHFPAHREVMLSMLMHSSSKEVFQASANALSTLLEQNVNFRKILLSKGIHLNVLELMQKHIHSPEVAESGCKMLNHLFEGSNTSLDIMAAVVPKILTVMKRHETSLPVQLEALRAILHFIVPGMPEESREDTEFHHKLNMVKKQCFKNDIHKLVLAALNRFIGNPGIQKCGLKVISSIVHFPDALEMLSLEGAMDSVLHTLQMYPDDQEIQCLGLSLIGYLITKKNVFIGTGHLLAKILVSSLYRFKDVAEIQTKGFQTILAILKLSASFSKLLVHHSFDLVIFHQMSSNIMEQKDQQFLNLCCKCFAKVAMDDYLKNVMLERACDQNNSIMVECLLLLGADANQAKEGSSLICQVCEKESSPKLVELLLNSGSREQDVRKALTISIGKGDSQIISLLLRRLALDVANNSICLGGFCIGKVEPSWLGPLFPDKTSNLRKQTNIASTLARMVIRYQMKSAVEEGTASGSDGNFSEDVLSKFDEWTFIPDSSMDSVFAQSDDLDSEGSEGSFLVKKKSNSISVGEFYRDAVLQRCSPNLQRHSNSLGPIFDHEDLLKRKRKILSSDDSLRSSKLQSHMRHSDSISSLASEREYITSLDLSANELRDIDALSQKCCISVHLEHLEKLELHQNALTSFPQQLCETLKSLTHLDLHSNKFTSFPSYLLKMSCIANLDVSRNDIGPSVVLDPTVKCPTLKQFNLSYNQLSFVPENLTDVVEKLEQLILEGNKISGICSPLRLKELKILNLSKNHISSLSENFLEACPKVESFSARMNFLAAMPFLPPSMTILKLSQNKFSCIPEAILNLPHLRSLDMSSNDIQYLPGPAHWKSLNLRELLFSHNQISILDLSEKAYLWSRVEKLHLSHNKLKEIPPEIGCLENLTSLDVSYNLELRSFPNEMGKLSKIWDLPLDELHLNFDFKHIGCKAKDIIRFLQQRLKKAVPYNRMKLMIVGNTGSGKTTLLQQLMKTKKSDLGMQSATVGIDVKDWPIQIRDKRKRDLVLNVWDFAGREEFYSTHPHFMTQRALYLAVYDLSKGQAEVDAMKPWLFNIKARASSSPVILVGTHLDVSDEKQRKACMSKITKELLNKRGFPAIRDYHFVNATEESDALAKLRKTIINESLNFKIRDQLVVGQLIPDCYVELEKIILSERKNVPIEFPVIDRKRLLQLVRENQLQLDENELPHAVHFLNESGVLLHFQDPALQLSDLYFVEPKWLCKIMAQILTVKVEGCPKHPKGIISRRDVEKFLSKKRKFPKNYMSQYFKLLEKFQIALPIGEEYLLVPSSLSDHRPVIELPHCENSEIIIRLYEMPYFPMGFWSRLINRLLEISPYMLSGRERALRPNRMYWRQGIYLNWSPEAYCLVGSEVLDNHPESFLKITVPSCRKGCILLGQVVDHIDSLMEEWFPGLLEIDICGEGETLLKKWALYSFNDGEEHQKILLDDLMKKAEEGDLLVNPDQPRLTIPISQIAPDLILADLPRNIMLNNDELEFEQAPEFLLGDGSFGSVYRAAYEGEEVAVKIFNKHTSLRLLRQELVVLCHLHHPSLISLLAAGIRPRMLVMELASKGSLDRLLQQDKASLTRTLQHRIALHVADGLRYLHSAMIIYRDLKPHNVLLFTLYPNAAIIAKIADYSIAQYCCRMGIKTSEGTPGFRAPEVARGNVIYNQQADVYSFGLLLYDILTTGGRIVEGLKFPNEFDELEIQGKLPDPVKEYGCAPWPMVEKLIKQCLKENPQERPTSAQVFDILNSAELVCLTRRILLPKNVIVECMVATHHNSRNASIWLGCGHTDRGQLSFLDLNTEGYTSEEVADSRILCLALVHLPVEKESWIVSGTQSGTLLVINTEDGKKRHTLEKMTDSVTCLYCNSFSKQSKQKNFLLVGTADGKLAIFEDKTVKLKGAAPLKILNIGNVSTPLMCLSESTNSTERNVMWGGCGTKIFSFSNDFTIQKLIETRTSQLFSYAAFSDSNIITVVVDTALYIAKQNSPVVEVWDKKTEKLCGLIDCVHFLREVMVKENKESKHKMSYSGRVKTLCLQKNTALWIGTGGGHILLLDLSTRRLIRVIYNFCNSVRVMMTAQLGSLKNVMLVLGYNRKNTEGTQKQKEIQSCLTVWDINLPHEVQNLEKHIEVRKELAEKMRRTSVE
Sequence of Phosphatidylinositol 4,5-bisphosphate 3-kinase catalytic subunit gamma isoform (Homo sapiens) (P48736 whole entry, looked up, canonical isoform): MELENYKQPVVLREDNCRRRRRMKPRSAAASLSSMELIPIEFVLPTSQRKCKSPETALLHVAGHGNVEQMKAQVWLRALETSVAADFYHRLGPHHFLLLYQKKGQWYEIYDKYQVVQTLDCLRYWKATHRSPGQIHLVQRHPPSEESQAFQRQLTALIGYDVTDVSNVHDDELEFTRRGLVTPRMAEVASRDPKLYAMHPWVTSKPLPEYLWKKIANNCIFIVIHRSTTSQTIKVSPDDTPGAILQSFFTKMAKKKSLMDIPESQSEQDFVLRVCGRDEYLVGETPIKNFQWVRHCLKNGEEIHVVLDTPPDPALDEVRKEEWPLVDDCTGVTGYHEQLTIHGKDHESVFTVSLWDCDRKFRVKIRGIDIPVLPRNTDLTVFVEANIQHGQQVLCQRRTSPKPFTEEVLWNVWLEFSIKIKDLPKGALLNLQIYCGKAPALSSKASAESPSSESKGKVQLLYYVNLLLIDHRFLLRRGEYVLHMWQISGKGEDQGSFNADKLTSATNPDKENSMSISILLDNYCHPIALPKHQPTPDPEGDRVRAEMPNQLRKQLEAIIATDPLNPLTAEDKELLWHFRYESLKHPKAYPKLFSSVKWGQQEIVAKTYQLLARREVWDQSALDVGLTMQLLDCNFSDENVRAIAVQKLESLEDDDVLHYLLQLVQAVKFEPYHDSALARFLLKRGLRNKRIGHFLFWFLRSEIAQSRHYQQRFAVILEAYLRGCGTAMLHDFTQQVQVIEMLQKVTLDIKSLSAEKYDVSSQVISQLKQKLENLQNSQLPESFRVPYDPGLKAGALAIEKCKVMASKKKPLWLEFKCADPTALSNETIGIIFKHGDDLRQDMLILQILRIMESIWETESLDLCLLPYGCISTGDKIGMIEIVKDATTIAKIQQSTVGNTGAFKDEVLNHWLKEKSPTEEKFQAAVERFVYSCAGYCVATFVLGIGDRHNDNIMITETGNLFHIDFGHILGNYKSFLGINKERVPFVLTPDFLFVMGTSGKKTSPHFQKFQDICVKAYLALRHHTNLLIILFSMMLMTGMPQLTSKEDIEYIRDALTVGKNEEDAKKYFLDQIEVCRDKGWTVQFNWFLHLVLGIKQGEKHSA
Sequence of Cyclin-dependent kinase-like 1 (Homo sapiens) (Q00532 whole entry): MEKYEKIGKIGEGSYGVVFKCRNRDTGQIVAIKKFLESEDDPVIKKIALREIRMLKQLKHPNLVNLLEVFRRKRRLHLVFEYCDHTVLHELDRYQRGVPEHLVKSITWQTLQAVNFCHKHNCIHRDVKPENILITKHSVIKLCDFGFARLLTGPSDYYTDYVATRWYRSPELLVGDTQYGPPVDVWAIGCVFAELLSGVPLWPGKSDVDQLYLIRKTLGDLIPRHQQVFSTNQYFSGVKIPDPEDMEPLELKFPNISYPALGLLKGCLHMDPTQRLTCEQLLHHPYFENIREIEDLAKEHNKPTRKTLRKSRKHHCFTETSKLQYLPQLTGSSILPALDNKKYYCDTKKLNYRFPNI
Sequence of Leucine-rich repeat serine/threonine-protein kinase 2 (Q5S007 whole entry): as the sequence (Q5S007 whole entry G2019S) above, with S2019G counted along it
Sequence of Activin receptor type-2A (Homo sapiens) (P27037 whole entry): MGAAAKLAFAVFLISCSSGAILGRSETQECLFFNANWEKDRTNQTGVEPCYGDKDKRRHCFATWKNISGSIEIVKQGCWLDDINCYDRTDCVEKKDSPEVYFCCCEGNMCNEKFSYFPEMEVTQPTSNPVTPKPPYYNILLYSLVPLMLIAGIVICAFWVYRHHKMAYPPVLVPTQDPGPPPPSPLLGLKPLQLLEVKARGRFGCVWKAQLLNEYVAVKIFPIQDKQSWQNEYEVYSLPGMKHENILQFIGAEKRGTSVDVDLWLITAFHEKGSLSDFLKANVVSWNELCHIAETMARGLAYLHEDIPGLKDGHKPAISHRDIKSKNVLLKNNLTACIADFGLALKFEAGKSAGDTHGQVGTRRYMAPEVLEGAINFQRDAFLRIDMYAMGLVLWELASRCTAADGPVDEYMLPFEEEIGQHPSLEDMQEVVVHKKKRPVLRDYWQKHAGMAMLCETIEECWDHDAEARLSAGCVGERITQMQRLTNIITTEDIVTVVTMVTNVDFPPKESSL

Compound `Cn1cc(-n2cnc3c(NCc4nc5cc(Cl)c(Cl)cc5[nH]4)nc(N4CCOCC4)nc32)cn1` gave a % of control in [1] of 11.7%.

Compound `COCC(=O)NC/C=C/c1ccc2ncnc(Nc3ccc(Oc4ccc(C)nc4)c(C)c3)c2c1` [CP-724714] displayed a % of control in [2] of 38%.

In [3], `Cc1cc(F)c(C(=O)Nc2cccc(-c3nncn3C(C)C)n2)cc1-n1cnc(C2CC2)c1` gave a % of control of 100%.

For `CNC(=O)Nc1ccc(-c2nc(N3CC4CCC(C3)O4)c3cnn(C4CCC5(CC4)OCCO5)c3n2)cc1`, the % of inhibition in [4] was 24%. For the same compound, the % of control in test [5] stood at 65%; in [6], 82%.

On to `CC[C@@H]1[C@H](F)C(=O)N[C@@H]1COc1nccc2cc(C(N)=O)c(OC)cc12` [ZIMLOVISERTIB], for which the % of inhibition in test [7] (at 0.01 µM) stood at 7.8%; in [7] (at 0.04 µM), 5.4%; in test [7] (at 0.2 µM), 9.3%; in test [7] (at 1 µM) it was 18.4%; in test [7] (at 5 µM), 34.3%.

In the case of `COc1cc(Nc2nc(C)cc(-c3cnn4nc(OC)ccc34)n2)cc(C(F)(F)F)c1`, the values for the % of control in test [8] and in [9] were 100% and 73%, respectively.

`O[C@H]1CC[C@H](Nc2ncc3nc(Nc4c(F)cc(F)cc4F)n([C@H]4CCOC4)c3n2)CC1` displayed a % of control in test [10] of 92%.

In the case of `COc1cc(N(C)c2ccnc3ccc(C(F)(F)F)cc23)cc(OC)c1OC`, the % binding in [11] was found to be 38%.
